# Legend:
# [1] = target: Protein phosphatase 1 regulatory subunit 15A (Homo sapiens, UniProt O75807); assay: Inhibition of amino-terminal MBP-tagged/carboxy-terminal His6-tagged human PPP1R15A (325 to 626 residues)
# [2] = target: Maternal embryonic leucine zipper kinase (Homo sapiens, UniProt Q14680); assay: Inhibition of MELK (unknown origin)
# [3] = target: T1, Protein phosphatase 1 regulatory subunit 15B (Homo sapiens, UniProt Q5SWA1); assay: Inhibition of amino-terminal MBP-tagged/carboxy-terminal His6-tagged human PPP1R15B (325 to 626 residues)
# T1 sequence (Q5SWA1 whole entry): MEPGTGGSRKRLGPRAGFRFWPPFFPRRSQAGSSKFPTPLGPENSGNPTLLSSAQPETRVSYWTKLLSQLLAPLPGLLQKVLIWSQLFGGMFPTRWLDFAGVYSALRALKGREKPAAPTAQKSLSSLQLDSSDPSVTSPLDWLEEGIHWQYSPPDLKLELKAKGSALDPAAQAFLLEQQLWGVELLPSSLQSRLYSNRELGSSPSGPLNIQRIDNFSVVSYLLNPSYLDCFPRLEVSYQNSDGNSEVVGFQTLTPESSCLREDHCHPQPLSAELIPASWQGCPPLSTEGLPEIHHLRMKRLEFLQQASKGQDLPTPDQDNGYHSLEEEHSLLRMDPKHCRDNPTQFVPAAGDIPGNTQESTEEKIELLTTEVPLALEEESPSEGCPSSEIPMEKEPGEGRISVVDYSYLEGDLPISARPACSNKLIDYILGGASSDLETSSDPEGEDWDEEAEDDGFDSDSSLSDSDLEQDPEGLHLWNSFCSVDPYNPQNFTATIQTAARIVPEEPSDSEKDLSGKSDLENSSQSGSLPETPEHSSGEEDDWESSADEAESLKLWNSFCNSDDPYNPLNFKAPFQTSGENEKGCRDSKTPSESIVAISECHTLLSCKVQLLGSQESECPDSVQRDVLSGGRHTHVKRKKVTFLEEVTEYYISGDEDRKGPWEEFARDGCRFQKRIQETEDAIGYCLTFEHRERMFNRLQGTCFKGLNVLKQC
# Homo sapiens = species: Homo sapiens; assay: Selectivity ratio, ratio of IC50 for HDAC6 (unknown origin) to Class 1 HDAC (unknown origin)
# [4] = target: T2, Protein deacetylase HDAC6 (Homo sapiens, UniProt Q9UBN7); assay: Inhibition of HDAC6 (unknown origin)
# T2 sequence (Q9UBN7 whole entry): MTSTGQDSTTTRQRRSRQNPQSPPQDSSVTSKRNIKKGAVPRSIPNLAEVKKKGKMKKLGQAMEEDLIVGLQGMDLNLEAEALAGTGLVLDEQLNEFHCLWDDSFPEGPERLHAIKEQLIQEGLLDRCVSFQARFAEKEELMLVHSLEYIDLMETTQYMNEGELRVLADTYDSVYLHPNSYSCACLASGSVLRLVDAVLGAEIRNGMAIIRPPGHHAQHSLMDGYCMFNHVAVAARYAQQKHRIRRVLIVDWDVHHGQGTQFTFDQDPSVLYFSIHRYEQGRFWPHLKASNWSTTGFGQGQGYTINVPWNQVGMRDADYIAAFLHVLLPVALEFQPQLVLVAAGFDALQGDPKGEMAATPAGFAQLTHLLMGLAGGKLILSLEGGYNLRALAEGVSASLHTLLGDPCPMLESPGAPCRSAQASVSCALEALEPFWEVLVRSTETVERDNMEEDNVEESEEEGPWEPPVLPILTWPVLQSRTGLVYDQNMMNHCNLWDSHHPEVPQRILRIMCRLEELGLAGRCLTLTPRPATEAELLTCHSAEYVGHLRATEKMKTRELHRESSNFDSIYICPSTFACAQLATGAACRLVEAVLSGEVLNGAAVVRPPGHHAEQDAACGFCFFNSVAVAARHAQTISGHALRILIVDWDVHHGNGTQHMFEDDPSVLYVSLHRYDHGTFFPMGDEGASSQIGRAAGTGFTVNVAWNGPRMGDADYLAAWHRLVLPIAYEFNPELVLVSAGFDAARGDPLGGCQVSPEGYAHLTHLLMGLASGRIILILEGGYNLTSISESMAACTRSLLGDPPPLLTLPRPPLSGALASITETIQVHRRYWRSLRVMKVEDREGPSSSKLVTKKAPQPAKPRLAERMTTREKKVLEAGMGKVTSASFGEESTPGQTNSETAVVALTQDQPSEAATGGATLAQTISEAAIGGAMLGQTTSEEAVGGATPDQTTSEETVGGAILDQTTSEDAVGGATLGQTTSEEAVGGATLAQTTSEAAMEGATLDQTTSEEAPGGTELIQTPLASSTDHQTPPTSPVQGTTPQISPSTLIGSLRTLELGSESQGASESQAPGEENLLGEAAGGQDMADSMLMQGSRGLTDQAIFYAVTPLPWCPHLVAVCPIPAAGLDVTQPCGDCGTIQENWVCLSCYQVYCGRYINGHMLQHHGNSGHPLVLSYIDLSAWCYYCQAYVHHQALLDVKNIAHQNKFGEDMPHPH
# Maternal embryonic leucine zipper kinase, sequence (Q14680 whole entry, the tested form may be a part): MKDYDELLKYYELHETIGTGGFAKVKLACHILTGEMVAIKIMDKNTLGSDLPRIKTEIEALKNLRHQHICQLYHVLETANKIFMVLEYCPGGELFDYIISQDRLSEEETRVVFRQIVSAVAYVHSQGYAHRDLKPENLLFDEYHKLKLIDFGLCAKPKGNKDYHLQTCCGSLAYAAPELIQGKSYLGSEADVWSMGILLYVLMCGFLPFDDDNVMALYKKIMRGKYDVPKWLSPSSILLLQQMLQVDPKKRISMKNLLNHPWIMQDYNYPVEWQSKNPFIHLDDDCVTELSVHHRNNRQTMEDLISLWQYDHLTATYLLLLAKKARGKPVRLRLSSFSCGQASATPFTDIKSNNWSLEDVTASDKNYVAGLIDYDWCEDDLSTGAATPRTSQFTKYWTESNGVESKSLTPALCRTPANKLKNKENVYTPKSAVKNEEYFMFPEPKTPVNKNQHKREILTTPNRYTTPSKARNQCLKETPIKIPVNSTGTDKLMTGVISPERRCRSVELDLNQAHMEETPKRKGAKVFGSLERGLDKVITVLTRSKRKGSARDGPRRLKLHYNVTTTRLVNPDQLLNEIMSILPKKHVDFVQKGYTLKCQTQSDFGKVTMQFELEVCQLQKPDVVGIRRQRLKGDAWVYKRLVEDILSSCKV
# Protein phosphatase 1 regulatory subunit 15A, sequence (O75807 whole entry, the tested form may be a part): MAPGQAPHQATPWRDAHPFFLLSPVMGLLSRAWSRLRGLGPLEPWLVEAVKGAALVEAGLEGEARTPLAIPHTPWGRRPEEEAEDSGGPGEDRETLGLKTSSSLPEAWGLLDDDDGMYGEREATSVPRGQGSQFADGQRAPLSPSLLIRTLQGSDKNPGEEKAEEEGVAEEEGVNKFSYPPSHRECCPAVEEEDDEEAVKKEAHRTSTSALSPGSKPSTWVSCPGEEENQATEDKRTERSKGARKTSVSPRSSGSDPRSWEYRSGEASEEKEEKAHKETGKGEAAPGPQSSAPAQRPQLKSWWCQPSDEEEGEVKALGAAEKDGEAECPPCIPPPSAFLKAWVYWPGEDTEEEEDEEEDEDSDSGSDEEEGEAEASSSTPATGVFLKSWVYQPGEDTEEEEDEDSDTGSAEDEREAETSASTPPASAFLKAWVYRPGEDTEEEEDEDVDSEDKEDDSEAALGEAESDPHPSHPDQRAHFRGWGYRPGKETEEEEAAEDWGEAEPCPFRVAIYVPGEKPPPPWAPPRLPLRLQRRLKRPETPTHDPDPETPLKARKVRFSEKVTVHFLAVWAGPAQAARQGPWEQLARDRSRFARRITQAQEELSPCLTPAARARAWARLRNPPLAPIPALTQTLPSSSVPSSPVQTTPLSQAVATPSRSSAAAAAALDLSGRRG
compound,measurement,setting,value
N=C(N)N/N=C/c1cccc(Cl)c1Cl,IC50,[1],0.977 µM
same,IC50,[2],0.2 to 0.5 µM
same,IC50,[3],0.033 µM
CNC(=O)COc1cc2cc(Nc3nc(N4C[C@H](C)C[C@H](C)C4)ncc3Cl)ccc2n(C)c1=O,IC50,[2],0.2 to 0.5 µM
COc1ccc(/C=C2\SC(=S)NC2=O)cc1C#C[Si](C)(C)C,IC50,[2],0.2 to 0.5 µM
O=C(NO)c1ccc(Cn2c(=O)n(CCc3ccccc3)c(=O)c3ccccc32)cc1,Ratio IC50,Homo sapiens,200
same,IC50,[2],0.2 to 0.5 µM
same,IC50,[4],0.0047 µM
